Assay results published in patent US20070021419A1, “2-Aminophenyl-4-phenylpyrimidines as kinase inhibitors” (Cyclacel Limited, priority 2003, published 2007).

Legend:
CDK7/cyclin H = CDK7/cyclin H (Homo sapiens, UniProt P50613); assay: Kinase assay, radioactive phosphate incorporation, CDK7/cyclin H; format: biochemical; conditions: 100 μM ATP, 30° C.; read-out: Kinase inhibition IC50 CDK7/cyclin H
Protocol: (§1) The compounds from the examples above were investigated for their ability to inhibit the enzymatic activity of various protein kinases. This was achieved by measurement of incorporation of radioactive phosphate from ATP into appropriate polypeptide substrates. Recombinant protein kinases and kinase complexes were produced or obtained commercially. Assays were performed using 96-well plates and appropriate assay buffers (typically 25 mM β-glycerophosphate, 20 mM MOPS, 5 MM EGTA, 1 mM DTT, 1 mM Na3VO3, pH 7.4), into which were added 2-4 μg of active enzyme with appropriate substrates. The reactions were initiated by addition of Mg/ATP mix (15 mM MgCl2+100 μM ATP with 30-50 kBq per well of [γ-^32P]-ATP) and mixtures incubated as required at 30° C. Reactions were stopped on ice, followed by filtration through p81 filterplates or GF/C filterplates (Whatman Polyfiltronics, Kent, UK). After washing 3 times with 75 mM aq orthophosphoric acid, plates were dried, scintillant added and incorporated radioactivity measured in a scintillation counter (TopCount, Packard Instruments, Pangbourne, Berks, UK). Compounds for kinase assay were made up as 10 mM stocks in DMSO and diluted into 10% DMSO in assay buffer.

CDK2/cyclin E = CDK2/cyclin E (Homo sapiens, UniProt P24941); assay: Kinase assay, radioactive phosphate incorporation, CDK2/cyclin E; format: biochemical; conditions: 100 μM ATP, 30° C.; read-out: Kinase inhibition IC50 CDK2/cyclin E
Protocol: as §1

CDK2/cyclin A = CDK2/cyclin A (Homo sapiens, UniProt P24941); assay: Kinase assay, radioactive phosphate incorporation, CDK2/cyclin A; format: biochemical; conditions: 100 μM ATP, 30° C.; read-out: Kinase inhibition IC50 CDK2/cyclin A
Protocol: as §1

CDK9/cyclin T1 = CDK9/cyclin T1 (Homo sapiens, UniProt P50750); assay: Kinase assay, radioactive phosphate incorporation, CDK9/cyclin T1; format: biochemical; conditions: 100 μM ATP, 30° C.; read-out: Kinase inhibition IC50 CDK9/cyclin T1
Protocol: as §1

GSK3β = GSK3β (Homo sapiens, UniProt P49841); assay: Kinase assay, radioactive phosphate incorporation, GSK3β; format: biochemical; conditions: 100 μM ATP, 30° C.; read-out: Kinase inhibition IC50 GSK3β
Protocol: as §1

CDK1/cyclin B = CDK1/cyclin B (Homo sapiens, UniProt P06493); assay: Kinase assay, radioactive phosphate incorporation, CDK1/cyclin B; format: biochemical; conditions: 100 μM ATP, 30° C.; read-out: Kinase inhibition IC50 CDK1/cyclin B
Protocol: as §1

CDK4/cyclin D1 = CDK4/cyclin D1 (Homo sapiens, UniProt P11802); assay: Kinase assay, radioactive phosphate incorporation, CDK4/cyclin D1; format: biochemical; conditions: 100 μM ATP, 30° C.; read-out: Kinase inhibition IC50 CDK4/cyclin D1
Protocol: as §1

HT29 = assay: 72-h MTT cytotoxicity assay, HT29; format: cell-based; conditions: Homo sapiens, HT-29, read-out: 72-h MTT IC50 HT29, HT29 cell line
Protocol: (§2) The compounds from the examples above were subjected to a standard cellular proliferation assay using human tumour cell lines obtained from the ATCC (American Type Culture Collection, 10801 University Boulevard, Manessas, Va. 20110-2209, USA). Standard 72-h MTT (thiazolyl blue; 3-[4,5-dimethylthiazol-2-yl]-2,5-diphenyltetrazolium bromide) assays were performed. In short: cells were seeded into 96-well plates according to doubling time and incubated overnight at 37° C. Test compounds were made up in DMSO and a 1/3 dilution series prepared in 100 μL cell media, added to cells (in triplicates) and incubated for 72 ho at 37° C. MTT was made up as a stock of 5 mg/mL in cell media and filter-sterilised. Media was removed from cells followed by a wash with 200 μL PBS. MTT solution was then added at 20 μL per well and incubated in the dark at 37° C. for 4 h. MTT solution was removed and cells again washed with 200 μL PBS. MTT dye was solubilised with 200 μL per well of DMSO with agitation.

[1] = tested on: transformed human cell lines (A549, HT29, Saos-2); assay: 72-h MTT cytotoxicity assay, average of cell lines; format: cell-based; conditions: read-out: 72-h MTT IC50 Average, average of A549, HT29, Saos-2
Protocol: as §2

Saos-2 = assay: 72-h MTT cytotoxicity assay, Saos-2; format: cell-based; conditions: Homo sapiens, read-out: 72-h MTT IC50 Saos-2, Saos-2 cell line
Protocol: as §2

A549 = assay: 72-h MTT cytotoxicity assay, A549; format: cell-based; conditions: Homo sapiens, read-out: 72-h MTT IC50 A549, A549 cell line
Protocol: as §2

GSK3β, sequence (P49841 whole entry, species assumed): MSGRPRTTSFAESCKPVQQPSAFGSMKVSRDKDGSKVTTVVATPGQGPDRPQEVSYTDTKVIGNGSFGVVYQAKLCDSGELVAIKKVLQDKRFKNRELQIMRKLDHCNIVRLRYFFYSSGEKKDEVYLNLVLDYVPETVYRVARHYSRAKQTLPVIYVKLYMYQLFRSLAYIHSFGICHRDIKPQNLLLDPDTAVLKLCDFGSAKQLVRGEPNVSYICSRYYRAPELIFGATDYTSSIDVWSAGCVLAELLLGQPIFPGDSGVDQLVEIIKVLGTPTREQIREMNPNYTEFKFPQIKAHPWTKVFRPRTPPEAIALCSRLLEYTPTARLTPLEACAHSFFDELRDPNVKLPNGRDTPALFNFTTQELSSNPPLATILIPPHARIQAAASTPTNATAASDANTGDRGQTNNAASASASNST
CDK1/cyclin B, sequence (P06493 whole entry, species assumed): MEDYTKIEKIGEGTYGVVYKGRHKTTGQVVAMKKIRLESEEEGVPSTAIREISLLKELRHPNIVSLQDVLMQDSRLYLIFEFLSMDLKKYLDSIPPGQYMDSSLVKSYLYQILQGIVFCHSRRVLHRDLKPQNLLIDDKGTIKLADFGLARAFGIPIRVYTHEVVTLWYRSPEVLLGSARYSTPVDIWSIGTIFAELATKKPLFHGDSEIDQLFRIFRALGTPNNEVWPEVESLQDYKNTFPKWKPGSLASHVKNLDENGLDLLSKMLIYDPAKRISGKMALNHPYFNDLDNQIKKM
CDK1/cyclin B, sequence (P14635 whole entry partner, species assumed): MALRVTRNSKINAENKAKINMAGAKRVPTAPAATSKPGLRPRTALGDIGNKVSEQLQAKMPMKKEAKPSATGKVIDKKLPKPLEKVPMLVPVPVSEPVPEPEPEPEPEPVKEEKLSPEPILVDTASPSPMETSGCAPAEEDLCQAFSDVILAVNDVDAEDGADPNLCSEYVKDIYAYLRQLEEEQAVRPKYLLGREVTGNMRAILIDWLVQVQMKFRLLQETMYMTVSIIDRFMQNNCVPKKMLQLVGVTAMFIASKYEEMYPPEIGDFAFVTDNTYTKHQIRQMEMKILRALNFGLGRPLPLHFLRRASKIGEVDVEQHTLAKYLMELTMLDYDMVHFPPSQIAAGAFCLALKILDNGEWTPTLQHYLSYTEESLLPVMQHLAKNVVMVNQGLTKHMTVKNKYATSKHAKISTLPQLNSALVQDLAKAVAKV
CDK7/cyclin H, sequence (P50613 whole entry, species assumed): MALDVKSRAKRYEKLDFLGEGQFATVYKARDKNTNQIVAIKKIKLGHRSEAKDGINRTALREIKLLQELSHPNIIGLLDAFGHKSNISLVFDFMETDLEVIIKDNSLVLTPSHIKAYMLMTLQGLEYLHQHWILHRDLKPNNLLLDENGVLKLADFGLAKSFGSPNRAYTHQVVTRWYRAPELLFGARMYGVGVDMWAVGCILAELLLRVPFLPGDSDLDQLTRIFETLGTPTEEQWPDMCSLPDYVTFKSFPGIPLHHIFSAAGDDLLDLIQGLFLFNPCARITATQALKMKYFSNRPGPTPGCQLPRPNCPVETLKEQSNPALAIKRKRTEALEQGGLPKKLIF
CDK7/cyclin H, sequence (P51946 whole entry partner, species assumed): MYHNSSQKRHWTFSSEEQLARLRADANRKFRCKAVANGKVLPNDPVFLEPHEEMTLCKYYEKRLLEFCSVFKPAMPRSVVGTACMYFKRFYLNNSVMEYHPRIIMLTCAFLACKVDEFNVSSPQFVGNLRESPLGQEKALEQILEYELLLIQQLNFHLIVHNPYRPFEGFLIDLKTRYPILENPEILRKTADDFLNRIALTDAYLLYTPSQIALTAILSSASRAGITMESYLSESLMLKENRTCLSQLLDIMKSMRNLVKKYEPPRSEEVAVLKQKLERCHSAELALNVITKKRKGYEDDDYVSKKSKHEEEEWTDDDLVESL
CDK9/cyclin T1, sequence (P50750 whole entry, species assumed): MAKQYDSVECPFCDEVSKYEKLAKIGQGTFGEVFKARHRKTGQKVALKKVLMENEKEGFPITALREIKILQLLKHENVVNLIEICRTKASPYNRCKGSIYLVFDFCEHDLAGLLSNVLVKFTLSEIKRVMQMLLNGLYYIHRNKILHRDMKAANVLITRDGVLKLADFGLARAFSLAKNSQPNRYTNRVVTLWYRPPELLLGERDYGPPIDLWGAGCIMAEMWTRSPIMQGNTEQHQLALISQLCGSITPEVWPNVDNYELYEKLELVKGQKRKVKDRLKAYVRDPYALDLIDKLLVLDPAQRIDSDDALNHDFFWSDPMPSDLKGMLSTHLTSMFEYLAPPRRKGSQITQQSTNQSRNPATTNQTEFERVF
CDK9/cyclin T1, sequence (O60563 whole entry partner, species assumed): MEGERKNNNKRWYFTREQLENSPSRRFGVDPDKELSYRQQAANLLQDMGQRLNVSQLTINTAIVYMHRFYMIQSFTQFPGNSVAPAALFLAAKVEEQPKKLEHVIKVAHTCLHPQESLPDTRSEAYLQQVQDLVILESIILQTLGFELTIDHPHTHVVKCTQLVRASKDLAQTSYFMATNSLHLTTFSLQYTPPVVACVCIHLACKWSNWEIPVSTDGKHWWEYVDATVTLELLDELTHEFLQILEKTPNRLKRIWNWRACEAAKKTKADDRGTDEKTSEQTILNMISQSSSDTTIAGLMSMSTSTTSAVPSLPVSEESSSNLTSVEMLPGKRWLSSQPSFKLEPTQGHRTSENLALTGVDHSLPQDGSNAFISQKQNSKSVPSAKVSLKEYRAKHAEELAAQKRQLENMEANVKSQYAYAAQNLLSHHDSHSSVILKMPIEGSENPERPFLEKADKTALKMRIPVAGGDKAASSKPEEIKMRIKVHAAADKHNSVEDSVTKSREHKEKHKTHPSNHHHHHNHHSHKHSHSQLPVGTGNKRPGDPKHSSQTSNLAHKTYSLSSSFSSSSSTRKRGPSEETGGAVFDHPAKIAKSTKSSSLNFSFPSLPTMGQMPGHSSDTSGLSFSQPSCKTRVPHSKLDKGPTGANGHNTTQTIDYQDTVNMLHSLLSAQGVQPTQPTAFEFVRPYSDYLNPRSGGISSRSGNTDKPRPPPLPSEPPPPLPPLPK
CDK4/cyclin D1, sequence (P11802 whole entry, species assumed): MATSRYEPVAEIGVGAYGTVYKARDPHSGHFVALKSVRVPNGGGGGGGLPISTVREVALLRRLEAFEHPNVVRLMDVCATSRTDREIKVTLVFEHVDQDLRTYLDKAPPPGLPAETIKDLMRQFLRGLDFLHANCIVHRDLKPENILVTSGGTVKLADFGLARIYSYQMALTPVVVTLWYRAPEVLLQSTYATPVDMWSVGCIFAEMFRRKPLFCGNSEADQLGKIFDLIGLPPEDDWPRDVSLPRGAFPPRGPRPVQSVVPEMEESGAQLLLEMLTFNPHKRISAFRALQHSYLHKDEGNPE
CDK4/cyclin D1, sequence (P24385 whole entry partner, species assumed): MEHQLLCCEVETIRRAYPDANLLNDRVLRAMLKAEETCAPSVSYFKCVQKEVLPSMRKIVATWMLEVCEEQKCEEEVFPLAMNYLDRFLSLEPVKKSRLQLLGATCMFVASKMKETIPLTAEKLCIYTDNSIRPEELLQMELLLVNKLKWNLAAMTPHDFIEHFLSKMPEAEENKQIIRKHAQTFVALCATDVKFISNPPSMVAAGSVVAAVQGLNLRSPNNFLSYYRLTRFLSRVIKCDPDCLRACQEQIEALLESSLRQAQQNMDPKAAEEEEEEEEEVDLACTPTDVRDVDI

Structure (SMILES)	IC50 (CDK7/cyclin H) [µM]	IC50 (CDK2/cyclin E) [µM]	IC50 (CDK2/cyclin A) [µM]	IC50 (CDK9/cyclin T1) [µM]	IC50 (GSK3β) [µM]	IC50 (CDK1/cyclin B) [µM]	IC50 (CDK4/cyclin D1) [µM]	IC50 (HT29) [µM]	IC50 [1] [µM]	IC50 (Saos-2) [µM]	IC50 (A549) [µM]
CCNc1cccc(-c2ccnc(Nc3ccc(OC)cc3)n2)c1 [Compound 25, [4-(3-Ethylamino-phenyl)-pyrimidin-2-yl]-(4-methoxy-phenyl)-amine]	0.94	0.039	0.03	0.005	0.14	0.17	0.17	–	–	–	–
CS(=O)(=O)NCc1cccc(-c2ccnc(Nc3cccc([N+](=O)[O-])c3)n2)c1 [Compound 40, N-{3-[2-(3-Nitro-phenylamino)-pyrimidin-4-yl]-benzyl}-methanesulfonamide]	0.88	0.42	–	1.6	0.005	0.27	–	1.2	2.4 ± 1.7	4.3	1.6
CN(C)c1ccc(Nc2nccc(-c3ccc(Cl)c(Cl)c3)n2)cc1 [Compound 20, N-[4-(3,4-Dichloro-phenyl)-pyrimidin-2-yl]-N′,N′-dimethyl-benzene-1,4-diamine]	–	6.1	–	–	1.1	3.9	20	35.8	32 ± 6.3	24.7	35.5
CCNc1cccc(-c2ccnc(Nc3ccc([N+](=O)[O-])cc3)n2)c1 [Compound 26, [4-(3-Ethylamino-phenyl)-pyrimidin-2-yl]-(4-nitro-phenyl)-amine]	20	0.033	0.13	0.059	0.04	1.3	–	1.2	1.3 ± 0.3	1.1	1.7
CN1CCN(Cc2cccc(-c3ccnc(Nc4cccc([N+](=O)[O-])c4)n3)c2)CC1 [Compound 54, {4-[3-(4-Methyl-piperazin-1-ylmethyl)-phenyl]-pyrimidin-2-yl}-(3-nitro-phenyl)-amine]	0.13	0.3	0.82	0.022	0.32	2	4.5	0.77	1.1 ± 0.3	1.3	1.1
Oc1cccc(Nc2nccc(-c3cccc(Cl)c3)n2)c1 [Compound 18, 3-[4-(3-Chloro-phenyl)-pyrimidin-2-ylamino]-phenol]	–	1.1	3.1	–	–	5.5	–	–	–	–	–
COc1ccc(Nc2nccc(-c3cccc(Cn4cncn4)c3)n2)cc1 [Compound 42, (4-Methoxy-phenyl)-[4-(3-[1,2,4]triazol-1-ylmethyl-phenyl)-pyrimidin-2-yl]-amine]	1.1	3.2	–	0.22	0.087	11	2	6.7	14.4 ± 10.1	25.8	10.6
Oc1cccc(Nc2nccc(-c3cccc(Cn4cncn4)c3)n2)c1 [Compound 34, 3-[4-(3-[1,2,4]triazol-1-ylmethyl-phenyl)-pyrimidin-2-ylamino]-phenol]	1.2	0.24	2.4	0.13	0.041	7	1.8	8.3	5.4 ± 2.5	3.7	4.1
O=[N+]([O-])c1cccc(Nc2nccc(-c3cccc(CN4CCCCC4CO)c3)n2)c1 (stereo not drawn) [Compound 79, (1-{3-[2-(3-Nitro-phenylamino)-pyrimidin-4-yl]-benzyl}-piperidin-2-yl)-methanol]	0.05	< 0.001	0.15	0.01	0.02	0.15	0.54	0.2	0.4 ± 0.2	0.62	0.33
Oc1ccc(Nc2nccc(-c3ccc(Cl)c(Cl)c3)n2)cc1 [Compound 21, 4-[4-(3,4-Dichloro-phenyl)-pyrimidin-2-ylamino]-phenol]	–	3.5	–	5.4	–	29	29	15.1	22.8 ± 16.3	41.5	11.7
O=[N+]([O-])c1cccc(Nc2nccc(-c3cccc(CN4CCCC(CCO)C4)c3)n2)c1 (stereo not drawn) [Compound 100, 2-(1-{3-[2-(3-Nitro-phenylamino)-pyrimidin-4-yl]-benzyl}-piperidin-3-yl)-ethanol]	0.07	0.06	0.58	0.002	0.02	1.2	3.4	0.64	0.8 ± 0.4	1.3	0.56
Clc1ccc(Nc2nccc(-c3cccc(CNCc4ccccc4)c3)n2)cn1 [Compound 48, {4-[3-(Benzylamino-methyl)-phenyl]-pyrimidin-2-yl}-(6-chloro-pyridin-3-yl)-amine]	1.7	1.3	9.8	1.2	0.32	–	3.5	5.1	13 ± 7.7	20.4	13.4
COc1ccc(Nc2nccc(-c3cccc(Cn4ccnc4)c3)n2)cn1 [Compound 59, [4-(3-Imidazol-1-ylmethyl-phenyl)-pyrimidin-2-yl]-(6-methoxy-pyridin-3-yl)-amine]	0.5	1.3	0.06	0.04	0.07	0.12	3.8	–	–	–	–
O=[N+]([O-])c1cccc(Nc2nccc(-c3cccc(Cn4ccnc4)c3)n2)c1 [Compound 29, [4-(3-Imidazol-1-ylmethyl-phenyl)-pyrimidin-2-yl]-(3-nitro-phenyl)-amine]	0.071	0.14	5.1	0.044	0.05	2.2	62	1.8	3.3 ± 1.4	4.5	3.6
Oc1ccc(Nc2nccc(-c3cccc(Cl)c3)n2)cc1 [Compound 17, 4-[4-(3-Chloro-phenyl)-pyrimidin-2-ylamino]-phenol]	–	0.39	2.1	–	–	5.3	–	–	–	–	–
CN(C)Cc1cccc(-c2ccnc(Nc3cccc([N+](=O)[O-])c3)n2)c1 [Compound 71, [4-(3-Dimethylaminomethyl-phenyl)-pyrimidin-2-yl]-(3-nitro-phenyl)-amine]	0.03	0.01	0.03	0.003	0.03	0.01	0.2	–	–	–	–
Cc1ccc(Nc2nccc(-c3cccc(CN4CCCCC4CO)c3)n2)cc1[N+](=O)[O-] (stereo not drawn) [Compound 108, (1-{3-[2-(4-Methyl-3-nitro-phenylamino)-pyrimidin-4-yl]-benzyl}-piperidin-2-yl)-methanol]	0.03	0.06	0.44	< 0.001	0.02	1.1	1.7	–	–	–	–
